From publication PMC5401710, “Peptides with 6-Aminohexanoic Acid: Synthesis and Evaluation as Plasmin Inhibitors” (International Journal of Peptide Research and Therapeutics, 2016)
Non-standard residues stand in square brackets, D forms with d. Residues, ends and D or L forms follow the SMILES beside them. Ahx = NCCCCCC(=O)O

Tests used:
plasmin [1] = target: T1, plasmin (Homo sapiens, UniProt P00747); settings: cited from earlier work; for plasmin inhibitory activity: ref Midura-Nowaczek et al. [1990]
T1 construct: The amino-terminal heavy chain of PL consists of five kringle domains; The C-terminal light chain of plasmin is a typical serine protease (SP); purchased Chromogenix (Milano, Italy)
T1 sequence (P00747 97-580 limits assumed): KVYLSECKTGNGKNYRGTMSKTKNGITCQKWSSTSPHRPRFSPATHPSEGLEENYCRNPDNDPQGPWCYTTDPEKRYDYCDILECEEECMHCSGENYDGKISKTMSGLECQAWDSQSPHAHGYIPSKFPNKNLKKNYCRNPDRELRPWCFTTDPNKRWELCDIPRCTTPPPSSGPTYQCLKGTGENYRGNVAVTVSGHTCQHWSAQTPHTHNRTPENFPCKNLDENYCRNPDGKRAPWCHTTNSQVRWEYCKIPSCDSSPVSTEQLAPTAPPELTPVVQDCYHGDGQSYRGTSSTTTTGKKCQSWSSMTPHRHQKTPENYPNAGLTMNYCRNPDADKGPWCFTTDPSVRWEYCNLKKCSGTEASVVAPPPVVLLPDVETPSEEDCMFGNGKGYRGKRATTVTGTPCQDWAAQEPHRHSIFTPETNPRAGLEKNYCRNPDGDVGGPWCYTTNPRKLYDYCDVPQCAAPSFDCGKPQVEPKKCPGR
T1 sequence (P00747 581-810 limits assumed): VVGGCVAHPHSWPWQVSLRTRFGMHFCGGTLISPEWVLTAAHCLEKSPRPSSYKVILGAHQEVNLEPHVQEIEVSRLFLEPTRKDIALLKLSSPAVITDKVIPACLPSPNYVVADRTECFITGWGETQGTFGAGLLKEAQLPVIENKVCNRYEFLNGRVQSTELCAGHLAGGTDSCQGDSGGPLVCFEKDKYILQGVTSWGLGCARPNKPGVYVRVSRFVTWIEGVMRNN

uPA = target: T2, uPA (Homo sapiens, UniProt P00749); test: Amidolytic activity of urokinase (substrate S-2444); type: biochemical; settings: amidolytic activity, S-2444, tris buffer pH 8.8
T2 construct: purchased Sigma (Schnelldorf, Germany)
Procedure: (§1) Determination of amidolytic activity was performed as previously described by (Okada et al. [1988]). Buffer and 0.1 ml of enzyme solution was added to 0.2 ml of examined compound dissolved in 0.15 M NaCl (1–15) (as control 0.15 M NaCl). The buffer and the enzyme solution included: • tris buffer—0.6 ml (pH 8.8), enzyme: urokinase (50 units/ml), synthetic substrate: S-2444 (0.1 ml, 3 mM); • tris buffer—0.5 ml (pH 8.4), enzyme: thrombin (1 units/ml), synthetic substrate: S-2238 (0.2 ml, 0.75 mM); • tris buffer—0.5 ml (pH 7.4), enzyme: plasmin (0.4 units/ml), synthetic substrate: S-2251 (0.2 ml, 3 mM); • […]—0.5 ml (pH 7.5), enzyme: trypsin (0.4 units/ml), synthetic substrate: Bzl-L-Arg–pNA.HCl (0.2 ml, 8 mM); • tris buffer—0.6 ml (pH 9.0), enzyme: kallikrein (3 units/ml), synthetic substrate: S-2266 (0.1 ml, 75 mM); • tris buffer—0.6 ml (pH 8.4), enzyme: t-PA ([…]), synthetic substrate: S-2288 (0.1 ml, 10 mM).
(§2) IC50 values were determined (IC50, Inhibitor Concentration, the concentration at which enzyme activity is inhibited by 50 %). Our results were compared with the 6-aminohexanoic acid.

[2] = tested on: fibrinolysis in whole blood; test: Thromboelastometric (ROTEM) analysis of clot formation and fibrinolysis in whole blood; set-up: species or system human; settings: for clotting time (CT, coagulation time) / lysis of the clot in 45 min (from LI45): human whole blood; for clotting time (CT, coagulation time): control 174 s; for lysis of the clot in 45 min (from LI45): whole blood alone about 61 %; for LOT lysis onset time (clot amplitude reduced by 15 %) / LT lysis time (clot reduced/lysed by 90 %) / LI30 lysis index, amplitude of clot after 30 min / LI45 lysis index, amplitude of clot after 45 min / LI60 lysis index, amplitude of clot after 60 min: recalcified human whole blood; for LOT lysis onset time (clot amplitude reduced by 15 %) / LT lysis time (clot reduced/lysed by 90 %): 140 ng/ml TF, 125 ng/ml tPA; for LI30 lysis index, amplitude of clot after 30 min / LI45 lysis index, amplitude of clot after 45 min / LI60 lysis index, amplitude of clot after 60 min: TF + tPA
Procedure: Five healthy volunteers, men (age range: 25–34 years)) with normal blood cell counts were entered into the study. Healthy volunteers had not taken medication known to affect platelet function and/or coagulation for at least 10 days before blood sampling.
Blood was stored at room temperature for 30 min after venipuncture and then was evaluated by thromboelastometric analyses.
Thromboelastometric measurements were performed using ROTEM system (Tem International GmbH, Manheim, Germany). […] We measured the parameters characterized kinetic of clot formation (clotting time, alpha angle), clot strength (maximal clot firmness; MCF), and fibrinolysis (percentage reduction of MCF, clot lysis time).

tPA = target: T3, tPA (Homo sapiens, UniProt P00750); test: Amidolytic activity of t-PA (substrate S-2288); type: biochemical; settings: amidolytic activity, S-2288, tris buffer pH 8.4
T3 construct: purchased Boehringer Ingelheim GmbH (Ingelheim, Germany)
T3 sequence (P00750 36-562): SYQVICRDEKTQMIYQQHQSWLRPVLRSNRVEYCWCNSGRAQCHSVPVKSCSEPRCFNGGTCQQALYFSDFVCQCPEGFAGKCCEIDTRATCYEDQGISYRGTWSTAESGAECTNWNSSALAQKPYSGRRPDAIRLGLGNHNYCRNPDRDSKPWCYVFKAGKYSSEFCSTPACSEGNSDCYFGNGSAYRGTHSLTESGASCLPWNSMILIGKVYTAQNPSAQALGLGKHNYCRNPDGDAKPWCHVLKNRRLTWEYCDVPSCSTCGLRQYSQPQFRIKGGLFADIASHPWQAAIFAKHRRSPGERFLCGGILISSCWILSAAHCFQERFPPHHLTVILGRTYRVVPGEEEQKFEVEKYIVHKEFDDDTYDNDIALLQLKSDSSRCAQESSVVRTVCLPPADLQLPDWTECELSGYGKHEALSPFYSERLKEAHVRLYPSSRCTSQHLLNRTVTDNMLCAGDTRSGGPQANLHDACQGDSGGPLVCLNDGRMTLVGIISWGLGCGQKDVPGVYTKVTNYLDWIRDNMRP
Procedure: as §1, §2

plasmin [3] = target: T1, plasmin; test: Amidolytic activity of plasmin (substrate S-2251); type: biochemical; settings: amidolytic activity, S-2251, tris buffer pH 7.4
Procedure: as §1, §2

thrombin = target: T4, thrombin (Bos taurus, UniProt P00735); test: Amidolytic activity of thrombin (substrate S-2238); type: biochemical; settings: amidolytic activity, S-2238, tris buffer pH 8.4
T4 construct: purchased Lubelska Wytwórnia Szczepionek (Lublin, Poland)
Procedure: as §1, §2

trypsin = test: Amidolytic activity of trypsin (substrate Bzl-L-Arg-pNA); type: biochemical; settings: amidolytic activity, Bzl-L-Arg-pNA, borane buffer pH 7.5
Procedure: as §1, §2

[4] = listed as H–Ala–Phe–Lys–EACA–NH2

| Molecule | IC50 (uPA) [mM] | IC50 (tPA) [mM] | IC50 (plasmin [3]) [mM] | IC50 (thrombin) [mM] | also measured |
| --- | --- | --- | --- | --- | --- |
| H–D-Ala–Phe–Lys–NH–(CH2)5–NH2 | – | – | – | – | plasmin inhibitory activity (plasmin [1]): no activity |
| C[C@@H](N)C(=O)N[C@@H](Cc1ccccc1)C(=O)N[C@@H](CCCCN)C(=O)NCCCCCC(N)=O [Compound 7, H–D-Ala–Phe–Lys–EACA–NH2] (H-[dA]FK[Ahx]-NH2) | > 20 | > 20 | 0.02 ± 0.0016 | > 20 | clotting time (CT, coagulation time) [2]: 115 s; lysis of the clot in 45 min (from LI45) [2]: 21%; LOT lysis onset time (clot amplitude reduced by 15 %) [2]: 2519 ± 176 s; LT lysis time (clot reduced/lysed by 90 %) [2]: 72 ± 4 min; LI30 lysis index, amplitude of clot after 30 min [2]: 97%; LI45 lysis index, amplitude of clot after 45 min [2]: 79%; LI60 lysis index, amplitude of clot after 60 min [2]: 28%; IC50 (trypsin): > 20 mM |
| C[C@@H](N)C(=O)N[C@@H](Cc1ccccc1)C(=O)NCCCCCC(N)=O [Compound 9, H–D-Ala–Phe–EACA–NH2] (H-[dA]-Phe-[Ahx]-NH2) | > 20 | > 20 | 1.55 ± 0.12 | > 20 | – |
| C[C@H](N)C(=O)N[C@@H](Cc1ccccc1)C(=O)NCCCCCC(=O)NCCCCCN [Compound 15, H–Ala–Phe–EACA–NH–(CH2)5–NH2] | > 20 | > 20 | > 20 | > 20 | – |
| C[C@@H](N)C(=O)N[C@@H](Cc1ccccc1)C(=O)NCCCCCC(=O)O [Compound 4, H–D-Ala–Phe–EACA–OH] (H-[dA]-Phe-[Ahx]-OH) | 3.17 ± 0.25 | 6.48 ± 0.52 | 10.9 ± 0.87 | > 20 | – |
| NCCCC[C@H](NC(=O)[C@@H](N)Cc1ccccc1)C(=O)NCCCCCC(=O)O [Compound 1, H–Phe–Lys–EACA–OH] (H-Phe-Lys-[Ahx]-OH) | > 20 | > 20 | 11.4 ± 0.91 | > 20 | – |
| NCCCCCC(N)=O [H–EACA–NH2, reference compound] | – | – | – | – | clotting time (CT, coagulation time) [2]: 117 s; lysis of the clot in 45 min (from LI45) [2]: 20%; LOT lysis onset time (clot amplitude reduced by 15 %) [2]: 2488 ± 172 s; LT lysis time (clot reduced/lysed by 90 %) [2]: 71 ± 5 min; LI30 lysis index, amplitude of clot after 30 min [2]: 96%; LI45 lysis index, amplitude of clot after 45 min [2]: 80%; LI60 lysis index, amplitude of clot after 60 min [2]: 32% |
| H–Ala–Phe–Lys–NH2 | – | – | – | – | inhibitory effect on plasmin activity (plasmin [1]; ref Midura-Nowaczek et al. [2003]): completely lacked this effect |
| H–Ala–Phe–Lys–NH–(CH2)5–NH2 | – | – | – | – | plasmin inhibitory activity (plasmin [1]): no plasmin inhibitory activity |
| C[C@H](N)C(=O)N[C@@H](Cc1ccccc1)C(=O)N[C@@H](CCCCN)C(=O)NCCCCCC(N)=O [Compound 8, H–Ala–Phe–Lys–EACA–NH2] (H-AFK[Ahx]-NH2) | > 20 | > 20 | 0.13 ± 0.01 | 7.59 ± 0.61 | clotting time (CT, coagulation time) [2]: 135 s; lysis of the clot in 45 min (from LI45) [2]: 14%; LOT lysis onset time (clot amplitude reduced by 15 %) [2]: 2731 s; LT lysis time (clot reduced/lysed by 90 %) [2]: about 67 min; LOT lysis onset time (clot amplitude reduced by 15 %) [2, 4]: 2731 ± 160 s; LT lysis time (clot reduced/lysed by 90 %) [2, 4]: 76 ± 6 min; LI30 lysis index, amplitude of clot after 30 min [2]: 99%; LI45 lysis index, amplitude of clot after 45 min [2]: 86%; LI60 lysis index, amplitude of clot after 60 min [2]: 43%; IC50 (trypsin): > 20 mM |
| C[C@@H](N)C(=O)N[C@@H](Cc1ccccc1)C(=O)N[C@@H](CCCCN)C(=O)NCCCCCC(=O)O [Compound 2, H–D-Ala–Phe–Lys–EACA–OH] (H-[dA]FK[Ahx]-OH) | > 20 | 14.4 ± 1.15 | 3.37 ± 0.27 | 3.85 ± 0.31 | – |
